Measurements taken from patent US7175850B2, “Formulation for topical non-invasive application in vivo” (Idea AG, priority 1998, dated 2007).

What was measured:
[1] = Biodistribution after epicutaneous application (blood, skin); type: in vivo, mice
Procedure: Drug in the Carrier (Transfersome) Suspensions. The formulations used in the biodistribution studies were labelled with the tritiurated corticosteroids purchased from Amersham or ICN. Preparation of the formulations for the use in animals was done by dissolving all lipoids in methanol/chloroform (1/1 v/v) in the appropriate amounts and preparing a dry mixed lipid film under vacuum (≦10 Pa;≧12 h). The use of potentially harmful organic solvents or drying was entirely avoided in the manufacturing of human medications.
In vivo Experiments mainly involved 8–12 weeks old NMRI mice which were kept under standard laboratory conditions (3–5 per suspending cage; standard chew and water ad libitum; 12 h light/dark regime). Stressful or painful manipulations were always carried out under general injection anesthesia.
Biodistribution. The hair at the chosen skin site was trimmed with a pair of scissors to the length of ≦2 mm one day before experimentation. The precise application site on the upper back was marked and the appropriate amount (0.5 μL to 25 μL) and drug formulation was applied with a micro-pipette on the skin. After uniform distribution with the side of the same pipette tip, the application was left to dry.
Blood samples (20 μL) were taken from the tail end with a glass capillary. After 8 hours the animals were killed by heart puncture and the treated skin area was undermined and carefully excised. The outermost layers of the stratum corneum were collected by five tape-strippings. Subsequently, the residual skin tissue and other organ samples were prepared, destained and used for radioactivity counting. For the experiments with porcine skin, […] of full thickness organ was excised and fixed on a wet tissue. Several test areas of 1 cm^2 were then marked and treated further as in vivo.

[2] = Ratio of corticosteroid concentration in blood and inner skin, calculated for humans
Procedure: The area dose will normally be between 0.1 μg cm^−2 and 1 μg cm^−2, for the high and low potency drugs, respectively.

Ratio of corticosteroid concentration in the blood and in the 'inner skin' (mouse) ([1]; dose 0.5 μg/cm^−2, measured)	Ratio of corticosteroid concentration in the blood and in the 'inner skin' (mouse) ([1]; dose 4.9 μg/cm^−2, measured)	Ratio of corticosteroid concentration in the blood and in the 'inner skin' (mouse) ([1]; dose 49.5 μg/cm^−2, measured)	Ratio of corticosteroid concentration in the blood and in the 'inner skin' (mouse) ([1]; dose 1.3 μg/cm^−2, measured)	Ratio of corticosteroid concentration in the blood and in the 'inner skin' (mouse) ([1]; dose 13.2 μg/cm^−2, measured)	Ratio of corticosteroid concentration in the blood and in the 'inner skin' (mouse) ([1]; dose 20.6 μg/cm^−2, measured)	Ratio of corticosteroid concentration in the blood and in the 'inner skin' (human) ([2]; dose 1.3 μg/cm^−2)	Ratio of corticosteroid concentration in the blood and in the 'inner skin' (human) ([2]; dose 13.2 μg/cm^−2)	Ratio of corticosteroid concentration in the blood and in the 'inner skin' (human) ([2]; dose 20.6 μg/cm^−2)	Compound
0	0.1	0.25							C[C@@H]1C[C@H]2[C@@H]3CCC4=CC(=O)C=C[C@]4(C)[C@@]3(F)[C@@H](O)C[C@]2(C)[C@@]1(O)C(=O)CO [Dexamethasone, dexamethasone]
0	0.012	0.015							C[C@]12CCC(=O)C=C1CC[C@@H]1[C@@H]2[C@@H](O)C[C@@]2(C)[C@H]1CC[C@]2(O)C(=O)CO [Hydrocortisone, hydrocortisone]
			0.02	0.04	0.03	0.00007	0.00011	0.0001	CC1(C)O[C@@H]2C[C@H]3[C@@H]4CCC5=CC(=O)C=C[C@]5(C)[C@@]4(F)[C@@H](O)C[C@]3(C)[C@]2(C(=O)CO)O1 [Triamcinolone-acetonide, triamcinolone-acetonide]
